Laboratory results as given in patent USRE48898E1, “Prodrugs of 2,4-pyrimidinediamine compounds and their uses” (Rigel Pharmaceuticals, Inc., priority 2006, dated 2022).
Entries after “also recorded” stand apart in the source; their conditions may differ. Counter-ions that a name gives are not always drawn. Like-named read-outs stand apart in the source and are kept apart here. Values belong to the compound of their own block, whether it stands above or below them.

Tests used:
[1] = Water solubility; assay type: physicochemical
[2] = Moisture sorption analysis; assay type: physicochemical
Procedure: The sample for moisture analysis was allowed to dry at 25° C. for up to 4 hours under a stream of dry nitrogen. The relative humidity was then increased stepwise from 10 to 90% relative humidity (adsorption scan) allowing the sample to equilibrate for a maximum of four hours before weighing and moving on to the next step. The desorption scan was measured from 85 to 0% relative humidity with the same equilibration time. The sample was then dried at 80° C. for 2 hours or until no weight loss was observed under a stream of dry nitrogen.

[3] = tested on: FcϵRI-dependent production and release of LTC4; test: FcϵRI-dependent production and release of LTC4; assay type: cell-based
[4] = tested on: Reverse Passive Arthus (RPA) reaction; test: Reverse Passive Arthus (RPA) reaction; assay type: in vivo, rat
From the text: IC-mediated acute inflammatory tissue injury is implicated in a variety of human autoimmune diseases, including vasculitis, serum sickness, systemic lupus erythematosus, RA, and glomerulonephritis. The classical experimental model for IC-mediated tissue injury is the Reverse Passive Arthus (RPA) reaction. Intravenous injection of antigen (ovalbumin, OVA) following intradermal injection of antibodies specific to OVA (rabbit anti-OVA IgG) results in perivascular deposition of IC and a rapid inflammatory response characterized by edema, neutrophil infiltration, and hemorrhage at the injection sites (Szalai, et al., 2000, J. Immunol. 164(1):463-468).

[5] = GLP mutagenicity and clastogenicity studies (Ames, chromosomal aberration, mouse micronucleus)
Procedure: (§1) GLP toxicology studies included negative mutagenicity and clastogenicity studies (Ames, chromosomal aberration, and mouse micronucleus). […] The No Observed Adverse Effect Level (NOAEL) is 10-30 mg/kg/day for rats and 100 mg/kg/day for monkeys.

[6] = tested on: Cord-Blood Derived Primary Human Mast Cells (CHMC); test: FcϵRI-dependent activation of CHMC, activity of tryptase released upon degranulation; assay type: cell-based; conditions: Mast cell
[7] = tested on: collagen antibody-induced arthritis (CAIA); test: Collagen antibody-induced arthritis (CAIA) model; assay type: in vivo, Balb/c mice
From the text: This passive model differs from the traditional rodent collagen-induced arthritis (CIA) in that disease symptoms appear quickly (developing within 24-48 hrs after an IV-injection of antibodies), arthritis is inducible in both CIA-susceptible and CIA-resistant mouse strains, and it allows evaluation of inflammation that is independent of antibody production. CAIA was induced in Balb/c mice by intravenous injection of Arthrogen-CIA® Monoclonal Antibody Blend (Chemicon International, Inc., Temecula, Calif.) via the tail vein, followed 2 days later by an intraperitoneal injection of LPS. […] The severity of the arthritis in hind-paws was scored daily (scale of 0-4 per paw, sum of scores for both hind paws).

[8] = in vivo
Procedure: as §1

[9] = tested on: CHMCs; test: Ionomycin-induced degranulation of CHMCs; assay type: cell-based, Human
[10] = tested on: collagen-induced arthritis; test: Collagen-induced arthritis (CIA); assay type: in vivo, Syngeneic LOU rats
From the text: One of the experimental models for IC-mediated tissue injury is the CIA in rodents (Kleinau et al., 2000, J. Exp. Med. 191:1611-1616). Injection of type II collagen (CII) into rodents produces an immune reaction that characteristically involves inflammatory destruction of cartilage and bone of the distal joints with concomitant swelling of surrounding tissues. CIA in rats is commonly used to evaluate compounds that might be of potential use as drugs for treatment of rheumatoid arthritis and other chronic inflammatory conditions and is induced in susceptible strains of either mice or rats by injection of CII in incomplete Freund's adjuvant (IFA). Administration of this emulsion gives rise to polyarthritis, characterized by synovial hyperplasia, infiltration of mononuclear cells, pannus formation, and destruction of cartilage and bone. […] Syngeneic LOU rats were immunized on Day 0 with native chicken CII/IFA. Oral treatment began at the onset of arthritis symptoms (Day 10). […] Hind limbs were scored daily for clinical arthritis severity using a standardized method based on the degree of joint inflammation. High resolution digital radiographs of hind limbs were obtained at the conclusion of the study (Day 28). These limbs were also analyzed for histopathologic changes. IgG antibodies to native CII were measured in quadruplicate by ELISA. […] Brahn. 2004). Blinded composite histopathologic studies confirmed the regression of pannus and erosions: […] Antibodies to native CII were not decreased in Compound 1-treated rats.

[11] = tested on: FcϵRI-dependent production and release of cytokines; test: FcϵRI-dependent production and release of cytokines; assay type: cell-based; conditions: read-out: EC50, all cytokines tested
[12] = Pharmacokinetics, IV and oral dosing; assay type: in vivo, Sprague-Dawley rats
Procedure: Prodrug Compound 4 was tested for oral bioavailability. For the study, the prodrug was dissolved in various vehicles (e.g. PEG 400 solution and CMC suspension) for intravenous and oral dosing in the rats. […] Following administration of the prodrug and/or drug, plasma samples were obtained and extracted. The plasma concentrations of the prodrug and/or drug were determined by high performance liquid chromatography/tandem mass spectrometry (LC/MS/MS) methods. Pharmacokinetic analyses were performed based on the plasma concentration data. The pharmacokinetic parameters of interest include Clearance (CL), Volume of distribution at steady-state (Vss), terminal half-life (t ½), and oral bioavailability (% F).
Referring to FIG. 4, PK profiles are shown for IV and PO administration in Sprague-Dawley rats. For IV administration, Compound 4 was dissolved in PEG-400 and administered at a dose of 1 mg/kg.
FIG. 5 summarizes the PK parameters for the study described in FIG. 4.
FIG. 11 illustrates the absorption of prodrug Compound 4 from different vehicles. […] Prodrug Compound 4 is absorbed equally well in solution formulations (PEG-400 and carboxymethylcellulose (CMC)) and as a powder in hard gelatin capsules.

[13] = Stability in rat plasma; assay type: in vitro ADME
From the text: The presence of Phosphatase activity in rat plasma was confirmed using p-nitrophenyl phosphate—a known substrate for phosphatase.

[14] = Stability under acidic and neutral conditions; assay type: physicochemical; conditions: acidic and neutral conditions at 37° C.
[15] = Conversion of prodrug to drug in microsome preparations; assay type: in vitro ADME, rat
From the text: Although phosphate-containing prodrugs suitable for oral administration are of interest, skilled artisans will appreciate that prodrugs including phosphate-containing progroups R^p can be administered via other routes of administration, as phosphatases are distributed throughout the body. […] Thus, the only requirement is that the particular phosphate-containing progroup R^p selected should be removable under the conditions of intended use.

[16] = water, in water, read-out: solubility
[17] = aqueous buffer, aqueous buffer under physiological conditions, read-out: water solubility
[18] = water, water solubility, read-out: Solubility

- solubility [1, 16]: 15 µg/mL
Compound: COc1cc(Nc2ncc(F)c(Nc3ccc4c(n3)N(COP(=O)(O)O)C(=O)C(C)(C)O4)n2)cc(OC)c1OC [Prodrug Salt 6, N4-(2,2-dimethyl-4-[(dihydrogenphosphonoxy)methyl]-3-oxo-5-pyrido[1,4]oxazin-6-yl)-5-fluoro-N2-(3,4,5-trimethoxyphenyl)-2,4-pyrimidinediamine mono calcium salt]

- water content ([2]; after humidity is increased): approximately 14.0%
- moisture content ([2]; dry conditions, ambient temperature, about 0% relative humidity): approximately 4.0%
- solubility [1, 16]: 10000 µg/mL
Compound: COc1cc(Nc2ncc(F)c(Nc3ccc4c(n3)N(COP(=O)([O-])[O-])C(=O)C(C)(C)O4)n2)cc(OC)c1OC.[Na+].[Na+] [prodrug salt hydrate 32, N4-(2,2-dimethyl-4-[(dihydrogenphosphonoxy)methyl]-3-oxo-5-pyrido[1,4]oxazin-6-yl)-5-fluoro-N2-(3,4,5-trimethoxyphenyl)-2,4-pyrimidinediamine disodium salt hexahydrate]
- stability of hydration over relative humidity ([2]; hexahydrate form): stable over a wide range of relative humidities

Compound: COc1cc(Nc2ncc(F)c(Nc3ccc4c(n3)NC(=O)C(C)(C)O4)n2)cc(OC)c1OC [Compound 1, N4-(2,2-dimethyl-3-oxo-4H-5-pyrido[1,4]oxazin-6-yl)-5-fluoro-N2-(3,4,5-trimethoxyphenyl)-2,4-pyrimidinediamine]
- EC50 [3]: 39 nM
- inhibition at 10 mg/kg ([4]; Rattus norvegicus, 10 mg/kg oral, rats, compared with vehicle control, read-out: inhibition of extravascular leakage of Evans blue dye (OD610) from tissue biopsies): 80%
- cutaneous RPA reaction and inflammatory edema ([4]; single oral treatment of rats one hour prior to antigen/antibody): reduced the cutaneous RPA reaction and inflammatory edema in a dose-dependent manner
- mutagenicity and clastogenicity [5]: negative
- EC50 [6]: ~43 nM
- arthritis severity, disease incidence, time of onset ([7]; lower dose levels, p>0.05): the differences were not significant
- clinical arthritis ([7]; oral, b.i.d., vs vehicle, p<0.05): significantly reduced clinical arthritis
- 28-day toxicity findings ([8]; monkey): reversible effect on hematology
- 28-day toxicity findings ([8]; rat): reversible effect on hematology, liver transaminase (mild effect in the rat only), spleen and thymus size (rat only) and bone marrow cellularity (rat and monkey)
- CD45RA+ cells, immunophenotyping ([8]; rat): significant increase
- Histopathology ([8]; rat): mild reductions in marrow cellularity
- humoral immunity, anti-KLH antibody assessment ([8]; rat): no evidence for untoward effects
- percentage of CD3+ cells, immunophenotyping ([8]; rat): significant decrease
- inhibition of ionomycin-induced degranulation [9]: does not inhibit
- arthritis severity ([10]; 30 mg/kg q.d. p.o., evident within 7 days after initiation of therapy, p<0.05): significant reduction
- Mean modified Mankin scores ([10]; 30 mg/kg, vehicle 11.8±0.9, p<0.001): 3.7±0.9
- clinical score ([10]; Day 28, 30 mg/kg, vehicle 6.08±0.67, p<0.001): 2.54±0.98
- joint damage, blinded radiographs ([10]; Day 28, vehicle 3.66±0.71, p<0.02): 1.63±0.67
- Antibodies to native CII ([10]; ELISA, treated rats): not decreased
- EC50 [11]: 158 to 462 nM
- solubility [1, 17]: < 1 µg/mL
- solubility ([1]; phosphate buffer, pH 7.5, aqueous buffer, phosphate buffer at pH=7.5, read-out: measured solubility): < 1 µg/mL
- solubility [1, 18]: < 1 µg/mL

- plasma profile of prodrug after IV administration ([12]; IV 1 mg/kg in PEG-400): Rapid disappearance
- levels of drug metabolite Compound 1 after oral prodrug ([12]; oral, PEG-400): high levels
- AUC/dose (Compound 1 exposure) / absorption, prodrug vs drug Compound 1 ([12]; oral, Compound 4 4 mg/kg vs Compound 1 2.5 mg/kg in PEG-400): nearly identical
- clearance of prodrug ([12]; study of FIG. 4/5): rapidly cleared
- stability [14]: stable
- conversion to drug Compound 1 ([15]; microsomal preparations obtained from Xenotech): failed to convert
- solubility of prodrug relative to active drug Compound 1 ([1]; aqueous buffer under physiological conditions): approximately 2000 times
- solubility [1, 17]: > 5000 µg/mL
- solubility [1, 18]: > 5000 µg/mL
Compound: COc1cc(Nc2ncc(F)c(Nc3ccc4c(n3)N(COP(=O)(O)O)C(=O)C(C)(C)O4)n2)cc(OC)c1OC [Compound 4, N4-(2,2-dimethyl-4-[(dihydrogenphosphonoxy)methyl]-3-oxo-5-pyrido[1,4]oxazin-6-yl)-5-fluoro-N2-(3,4,5-trimethoxyphenyl)-2,4-pyrimidinediamine]
- systemic presence of prodrug after oral administration ([12]; oral, PEG-400): no prodrug Compound 4 was present systemically
- dependence of absorption on formulation ([12]; rats, PEG-400 and CMC solutions, powder in hard gelatin capsules): not dependent upon formulation; also recorded: not dependent on formulation
- stability in rat plasma / hydrolysis to Compound 1 [13]: metabolize to the active drug Compound 1; also recorded: unstable
- conversion to drug Compound 1 ([15]; intestinal and hepatic microsomes from a different source): metabolize to the active drug Compound 1; also recorded: conversion of Compound 4 to Compound 1 was observed
